Reference: patent US11241440B2, “Dihydrooxadiazine compounds for treating infections and cancer” (VALORALIA I MÁS D, SL, priority 2016, dated 2022)

Test system: M. chelonae
Test: Kirby-Bauer disk diffusion susceptibility test
Format: cell-based
Details: M. chelonae strain 870, isolation year 2011

## Penicillin
  Characteristics of strains: susceptibility or resistance: R
